# Test results as given in paper PMC5381078, “Carboxylate derivatives of tributyltin (IV) complexes as anticancer and antileishmanial agents” (DARU Journal of Pharmaceutical Sciences, 2017).
# Assays:
# [1] = system: promastigotes of Leishmania tropica kwh 23; experiment: Antileishmanial activity (MTT assay); assay type: cell-based; conditions: 72 h; for Antileishmanial % growth inhibition (mortality, lethality): 20 μg/mL; for Antileishmanial LC50: MTT
# Procedure: Antileishmanial activity against the promastigotes of Leishmania tropica kwh 23 was evaluated by a quantitative colorimetric assay using 3-(4,5-dimethylthiazol-2-yl)-2, 5-diphenyl tetrazolium bromide (MTT) with minor modifications. […] […] Negative control wells contained 1% DMSO in PBS. All samples were run in triplicate. Afterwards, plates were incubated for 4 h at 24 °C with 20 μL of MTT (4 mg/mL in distilled water) to determine the cell viability. Supernatant from each well was carefully removed leaving behind formazan crystals. Colored formazan crystals were dissolved in 100 μL of DMSO by setting those aside for 1 h to ensure complete dissolution. Cell viability was estimated by measuring absorbance at 540 nm using microplate reader and percentage growth inhibition was calculated.
# [2] = system: Leishmania tropica kwh 23 promastigotes; experiment: ROS mediated antileishmanial activity (NaN3 / mannitol scavengers); assay type: cell-based; conditions: for Reduction of antileishmanial activity in the presence of NaN3: NaN3 0.1 mM; for Reduction of antileishmanial activity in the presence of mannitol: mannitol 1 mM
# Procedure: Leishmania tropica kwh 23 promastigotes were treated in three groups. First group was exposed to samples along with 0.1 mM sodium azide (NaN3), second group to samples with 1 mM mannitol and third group comprised of all controls. In third group, promastigotes were treated in different wells with samples only (sample control), 1% DMSO in PBS only (negative control-I), amphotericin B only (positive control), 0.1 mM NaN3 only (negative control-II) and 1 mM mannitol only (negative control-III). Plates were incubated followed by MTT assay described above.
# [3] = system: isolated lymphocytes; experiment: Cytotoxicity against isolated lymphocytes (MTT assay); assay type: cell-based, human; conditions: 24 h; for Isolated lymphocytes % growth inhibition: 20 μg/mL
# Procedure: Lymphocytes were isolated using previously described protocol with some modifications. Informed consent was obtained from volunteers and procedure was conducted according to international ethical guidelines after gaining approval from the ethical committee of the Quaid-i-Azam University. A volume of 3 mL of blood was obtained from a healthy donor by venipuncture and diluted (1:1) with PBS. It was layered over 2 mL Histopaque-1077 and centrifuged at 800 × g for 20 min. The buffy coat was aspirated into 5 mL of PBS and centrifuged at […] for 4 min to pellet the lymphocytes. The pellet was suspended in 1 mL of RPMI-1640 and cell density was adjusted to get 1 × 10^5 cells/mL. For cytotoxicity determination, 20 μL of samples (20 μg/mL) or vincristine or 1% DMSO in PBS and 180 μL of lymphocyte suspension were incubated in 96-well plate at 37 °C for 24 h in humidified 5% carbon dioxide incubator (Panasonic, Japan MCO-18 AC-PE). Phytohaemagglutinin (PHA) was added in medium to stimulate lymphocyte growth. Afterwards, MTT assay was done as described above. IC50 values were determined using 3-fold dilutions of the samples.
# [4] = system: THP-1 cell line; experiment: Cytotoxicity against THP-1 cell line (MTT assay); assay type: cell-based, human; conditions: 20 μg/mL, 72 h
# Procedure: Cytotoxicity of tributyltin (IV) compounds against THP-1 cell line was determined by 3-(4,5-dimethylthiazol-2-yl)-2,5-diphenyl tetrazolium bromide (MTT) assay. THP-1 cells were cultured in complete growth medium comprising RPMI-1640 (pH 7.4) supplemented with 2.2 g/L NaHCO3 and 10% v/v heat inactivated fetal bovine serum (HIFBS). An aliquot of 20 μL of samples in 1% DMSO in PBS and 180 μL of THP-1 cells were mixed in 96-well plate. Cells were added at an assay density of 1 × 10^4 cells/mL whereas sample/standard was added to achieve the final concentration of 20 μg/mL. The plate was incubated at 37 °C for 72 h in humidified 5% carbon dioxide incubator (Panasonic, Japan MCO-18 AC-PE). Vincristine and 1% DMSO in PBS were used as positive and negative controls respectively. After incubation, 20 μL of pre-filter sterilized MTT solution (4 mg/mL in distilled water) was added in plates and incubated for 4 h at 37 °C in CO2 incubator. Later, colored formazan crystals were separated by removing supernatant and dissolved in 100 μL of DMSO. Reaction was allowed to stand for 1 h to ensure complete dissolution and absorbance was measured at 540 nm using microplate reader (Biotech USA, Elx 800).
# [5] = system: Streptomyces 85E; experiment: Protein kinase inhibition assay (Streptomyces disc assay); assay type: cell-based; conditions: for ZOI CZ (clear zone): (-) shows no ZOI; for ZOI BZ (bald zone): BZ indicative of PK inhibition; for MIC for PK inhibition: minimum inhibitory concentration
# Procedure: Protein kinase inhibitory activity of the tributyltin (IV) compounds was measured against Streptomyces 85E strain using previously described protocol. Culture of Streptomyces 85E was refreshed in tryptic soy broth and 100 μL of this was swabbed on sterile ISP4 medium under aseptic conditions. […] Diameter (mm) of zone of inhibition (ZOI) around all samples and controls was measured as clear zone (CZ) and bald zone (BZ). […] BZ is indicative of PK inhibition.
# [6] = system: Leishmania tropica kwh 23 promastigotes; experiment: Photosensitizing effect against leishmania; assay type: cell-based; conditions: for Photosensitizing effect % growth inhibition, Sunlight with IR filter: 15 min; for Photosensitizing effect % growth inhibition, Sunlight: 15 min sunlight
# Procedure: Photosensitizing effect of tributyltin (IV) compounds was determined in three parallel groups. Samples and controls were exposed for 15 min to sunlight (168 W/m^2 of sun intensity) or sunlight with IR filter or dark conditions. The relative intensity of sunlight was measured by a CCD spectrometer (Ocean Optics, model HR4000). Later, plates were incubated at 25 °C for 72 h and cell viability was determined by MTT assay as given above. In this assay, samples were tested at concentrations showing less than 55% inhibition in primary antileishmanial assay to exclude false positive.
# [7] = system: HepG2 cell line; experiment: Cytotoxicity against HepG2 cell line (SRB assay); assay type: cell-based, human; conditions: 72 h; for HepG2 % growth inhibition: 20 μg/mL; for HepG2 IC50: 3-fold dilutions
# Procedure: Cytotoxicity was further evaluated against HepG2 cell line by sulforhodamine B (SRB) colorimetric assay. Dulbecco's Modified Eagle Medium (DMEM) supplemented with 10% FBS, 100 μg/mL streptomycin sulfate, 100 IU/mL penicillin G sodium and 0.25 μg/mL amphotericin B was used to culture HepG2 cells in CO2 (5%) incubator (Panasonic, Japan MCO-18 AC-PE) at 37 °C. An aliquot of 20 μL (1% DMSO in PBS) of samples was added to 180 μL of cell culture at an assay density of 1x10^5 cells/mL in 96-well plate. The plate was incubated at 37 °C for 72 h in CO2 incubator. Final concentration of compounds/standard was 20 μg/mL. Doxorubicin and 1% v/v DMSO in PBS ere used as positive and negative controls respectively. An equivalent number of cells in twelve wells of 96-well plate were incubated for 1 h at 37 °C and labeled as day zero control. Later, cells were fixed by adding 50 μL of cold 20% w/v TCA for 1 h at 4 °C. These were washed with tap water, air dried and stained with 50 μL of 0.057% w/v SRB in 1% v/v acetic acid for 30 min at room temperature. Cells were again washed with 1% v/v acetic acid, dried overnight and 200 μL of 10 mM Tris base (pH 10) was used to solubilize the bound dye for 1 h. Absorbance was measured at 515 nm using a microplate reader. Percentage of growth inhibition was calculated as: % inhibition = 100 – [(As – Ao) / (An – Ao) × 100], where, Ao, As and An are absorbance of day zero control, samples and negative control respectively. IC50 values were determined using 3-fold dilutions of the samples.
# [8] = system: axenic log-phase promastigotes; parameters: method as in PMID 19546361; conditions: cited from earlier work
# [9] = system: cellular metacyclic promastigotes; parameters: method as in PMID 19546361; conditions: cited from earlier work
SMILES,Reduction of antileishmanial activity in the presence of NaN3 [2],Reduction of antileishmanial activity in the presence of mannitol [2],"Antileishmanial % growth inhibition (mortality, lethality) [1]",Antileishmanial LC50 [1],THP-1 % growth inhibition [4],ZOI CZ (clear zone) ([5]; 6.25 μg/disc),ZOI BZ (bald zone) ([5]; 6.25 μg/disc),ZOI CZ (clear zone) ([5]; 50 μg/disc),MIC for PK inhibition [5],"Photosensitizing effect % growth inhibition, Control ([6]; 0.092 μg/mL)","Photosensitizing effect % growth inhibition, Dark ([6]; 0.092 μg/mL)","Photosensitizing effect % growth inhibition, Sunlight with IR filter ([6]; 0.092 μg/mL)","Photosensitizing effect % growth inhibition, Sunlight ([6]; 0.092 μg/mL)",Isolated lymphocytes % growth inhibition [3],HepG2 % growth inhibition [7],HepG2 IC50 [7],also measured
"C[C@@H]1[C@H](O)[C@@H](C)/C=C/C=C/C=C/C=C/C=C/C=C/C=C/[C@H](O[C@@H]2O[C@H](C)[C@@H](O)[C@H](N)[C@@H]2O)C[C@@H]2O[C@](O)(C[C@@H](O)C[C@@H](O)[C@H](O)CC[C@@H](O)C[C@@H](O)CC(=O)O[C@H]1C)C[C@H](O)[C@H]2C(=O)O [Amphotericin B, reference compound]",16%,10%,,,,,,,,,,,,,,,"mortality at 20 µg/mL ([1]; Leishmania tropica, read-out: Antileishmanial % growth inhibition (mortality, lethality)): 100%"
"CCC[CH2][Sn]([CH2]CCC)([CH2]CCC)[O]C(=O)/C=C\C(=O)NC1CCCCC1 [Ch-442, tributylstannyl (Z)-4-(cyclohexylamino)-4-oxobut-2-enoate]",22%,38.2%,95.8 ± 2.16 %,0.088 ± 0.009 µg/mL,44.6 ± 1.18%,10 ± 0.74 mm,29 ± 0.78 mm,40 ± 1.17 mm,0.391 ± 0.006 μg/disc,46.1 ± 0.56%,44.18 ± 1.16%,49.25 ± 0.63%,40.5 ± 0.12%,,,,Isolated lymphocytes IC50 [3]: 14.9 ± 0.25 µg/mL
"CCC[CH2][Sn]([CH2]CCC)([CH2]CCC)[O]C(=O)CCC(=O)Nc1ccc(C(=O)[O][Sn]([CH2]CCC)([CH2]CCC)[CH2]CCC)cc1 [Ch-448, tributylstannyl 4-(4-oxo-4-((tributylstannyl)oxy)butanamido)benzoate]",,,96.5 ± 2.67 %,0.576 ± 0.088 µg/mL,43.1 ± 2.29%,,25 ± 1.75 mm,31 ± 1.05 mm,0.781 ± 0.002 μg/disc,,,,,23.6 ± 1.07ǂ %,97.1 ± 2.34 %,3.45 ± 0.63 µg/mL,"Photosensitizing effect % growth inhibition, Control ([6]; 0.55 μg/mL): 54.65 ± 2.75%; Photosensitizing effect % growth inhibition, Dark ([6]; 0.55 μg/mL): 50.16 ± 1.19%; Photosensitizing effect % growth inhibition, Sunlight with IR filter ([6]; 0.55 μg/mL): 52.9 ± 1.17%; Photosensitizing effect % growth inhibition, Sunlight ([6]; 0.55 μg/mL): 49.7 ± 0.89%"
"CCC[CH2][Sn]([CH2]CCC)([CH2]CCC)[O]C(=O)/C=C\C(=O)Nc1ccccc1 [Ch-458, tributylstannyl (Z)-4-oxo-4-(phenylamino)but-2-enoate]",,,97.8 ± 1.23 %,0.256 ± 0.064 µg/mL,21.2 ± 1.57%,12 ± 1.25 mm,31 ± 1.37 mm,30 ± 1.2 mm,0.195 ± 0.001 μg/disc,35.2 ± 1.78%,36.7 ± 0.74%,30.25 ± 0.17%,42.7 ± 1.35%,14.8 ± 0.13ǂ %,98.7 ± 3.56 %,1.58 ± 0.07 µg/mL,
O.O.O.O.O.O.O.O.O.O=C([O-])[C@@H]1[O][Sb](=[O])([O][Sb]2(=[O])[O][C@H]([C@H](O)CO)[C@H](O)[C@H](C(=O)[O-])[O]2)[O][C@H]([C@H](O)CO)[C@@H]1O.[Na+].[Na+].[Na+] (stereo partly shown) [sodium stibogluconate],,,,,,,,,,,,,,,,,IC50 [8]: 64 µg/mL; IC50 [9]: 22 µg/mL
